From ChEMBL document CHEMBL1201862, “PubChem BioAssay data set” (2004)
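Results reflect a 48-hour exposure of cells in 96-well plates to compound at five concentrations. Here, GI50 denotes the concentration required for 50% inhibition of growth.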 Activity calls are given as the source filed them. Rule as the data show it: active = GI50 up to about 1.1 µM and inactive = higher.

Assays:
Experiment in all cases: DTP human tumour cell line panel, 48 h
COLO 205 = tested on: COLO 205
DU-145 = tested on: DU-145
HCC 2998 = tested on: HCC 2998
HCT-15 = tested on: HCT-15
Hs-578T = tested on: Hs-578T
MDA-MB-435 = tested on: MDA-MB-435
MOLT-4 = tested on: MOLT-4
NCI-H23 = tested on: NCI-H23
NCI-H522 = tested on: NCI-H522
OVCAR-8 = tested on: OVCAR-8
PC-3 = tested on: PC-3
SK-MEL-5 = tested on: SK-MEL-5
SK-OV-3 = tested on: SK-OV-3
U-251 = tested on: U-251
CAKI-1 = tested on: CAKI-1
HOP-92 = tested on: HOP-92
M14 = tested on: M14
OVCAR-3 = tested on: OVCAR-3
RXF 393 = tested on: RXF 393
UACC-62 = tested on: UACC-62

SMILES	GI50 (COLO 205)	GI50 (DU-145)	GI50 (HCC 2998)	GI50 (HCT-15) [µM]	GI50 (Hs-578T)	GI50 (MDA-MB-435)	GI50 (MOLT-4)	GI50 (NCI-H23)	GI50 (NCI-H522)	GI50 (OVCAR-8)	GI50 (PC-3)	GI50 (SK-MEL-5)	GI50 (SK-OV-3)	GI50 (U-251)	GI50 (CAKI-1)	GI50 (HOP-92)	GI50 (M14)	GI50 (OVCAR-3)	GI50 (RXF 393)	GI50 (UACC-62)
c1ncn(C23C4C5C6C4C2C6C53)n1 (stereo not given)	> 100 µM (inactive)	> 100 µM (inactive)	> 100 µM (inactive)	> 100	> 100 µM (inactive)	> 100 µM (inactive)	> 100 µM (inactive)	> 100 µM (inactive)	> 100 µM (inactive)	> 100 µM (inactive)	> 100 µM (inactive)	> 100 µM (inactive)	> 100 µM (inactive)	> 100 µM (inactive)						
CN(C)Cc1cc(/N=N/c2ccccc2Cl)cc(CN(C)C)c1O	20.5 µM (inactive)	> 100 µM (inactive)	48.2 µM (inactive)	> 100	28.1 µM (inactive)	34.4 µM (inactive)	20.5 µM (inactive)	> 100 µM (inactive)	12.3 µM (inactive)	45.5 µM (inactive)	33.5 µM (inactive)	18.2 µM (inactive)		84.3 µM (inactive)	> 100 µM (inactive)	21.5 µM (inactive)	29.4 µM (inactive)	21.4 µM (inactive)	31.6 µM (inactive)	26.2 µM (inactive)
O=S(=O)(O)c1ccc2c(/N=N/c3ccccc3Cl)c(O)ccc2c1	> 100 µM (inactive)	> 100 µM (inactive)		> 100	> 100 µM (inactive)	> 100 µM (inactive)	> 100 µM (inactive)	> 100 µM (inactive)	> 100 µM (inactive)	> 100 µM (inactive)	> 100 µM (inactive)	> 100 µM (inactive)	> 100 µM (inactive)	> 100 µM (inactive)	> 100 µM (inactive)	> 100 µM (inactive)	> 100 µM (inactive)	> 100 µM (inactive)	> 100 µM (inactive)	> 100 µM (inactive)
C/C(=C/CC[C@](C)(OC1OC(CO)C(O)C(O)C1O)[C@H]1CC[C@]2(C)[C@@H]1CC[C@@H]1[C@@]3(C)CC[C@H](O)C(C)(C)[C@@H]3C[C@H](O)[C@]12C)CO (stereo not given in full)	21.3 µM (inactive)	85.7 µM (inactive)		18.1	16.2 µM (inactive)	36 µM (inactive)	12.2 µM (inactive)	45.1 µM (inactive)	17.9 µM (inactive)	33.3 µM (inactive)	31.5 µM (inactive)	18.2 µM (inactive)	21.9 µM (inactive)	13.6 µM (inactive)	31.7 µM (inactive)	27.4 µM (inactive)	37.5 µM (inactive)	24.2 µM (inactive)	3.46 µM (inactive)	19.1 µM (inactive)
CN1Cc2ccccc2S(=O)(=O)n2cccc2C1=O	> 100 µM (inactive)	> 100 µM (inactive)		> 100	> 100 µM (inactive)	> 100 µM (inactive)	> 100 µM (inactive)		> 100 µM (inactive)		> 100 µM (inactive)	> 100 µM (inactive)	> 100 µM (inactive)	> 100 µM (inactive)	> 100 µM (inactive)	> 100 µM (inactive)		> 100 µM (inactive)	> 100 µM (inactive)	> 100 µM (inactive)
CCOc1ccc(C(c2c(O)c3ccccc3oc2=O)c2c(O)c3ccccc3oc2=O)cc1	> 100 µM (inactive)	> 100 µM (inactive)		65.5	37.6 µM (inactive)	70.3 µM (inactive)	33.6 µM (inactive)	44.4 µM (inactive)	30.7 µM (inactive)	43.9 µM (inactive)	29.6 µM (inactive)	44.5 µM (inactive)	47.4 µM (inactive)	32.7 µM (inactive)	93.8 µM (inactive)	23.6 µM (inactive)	42.3 µM (inactive)	43.8 µM (inactive)		38.7 µM (inactive)
CCOC(=O)Nn1c(CC#N)nnc1Cc1ccccc1		> 100 µM (inactive)	> 100 µM (inactive)	> 100	> 100 µM (inactive)	> 100 µM (inactive)	> 100 µM (inactive)	> 100 µM (inactive)	> 100 µM (inactive)	> 100 µM (inactive)	> 100 µM (inactive)	> 100 µM (inactive)		> 100 µM (inactive)	> 100 µM (inactive)	> 100 µM (inactive)	> 100 µM (inactive)	> 100 µM (inactive)	> 100 µM (inactive)	> 100 µM (inactive)
CC(C)(C)c1ccc(O)c(CN(Cc2c(O)ccc3ccccc23)C2CCCCC2)c1	15.7 µM (inactive)	23.8 µM (inactive)		16.4	27.4 µM (inactive)	19.2 µM (inactive)	18.6 µM (inactive)	16.4 µM (inactive)	14.8 µM (inactive)	15.2 µM (inactive)	14.5 µM (inactive)	16.5 µM (inactive)	24.9 µM (inactive)	16 µM (inactive)	15.2 µM (inactive)	16.4 µM (inactive)	12.6 µM (inactive)	17.4 µM (inactive)	17.5 µM (inactive)	15.6 µM (inactive)
CC(C)[C@H]1NC(=O)[C@H]2N=C(S[C@H]2C)[C@@H]2CCCN2C(=O)[C@H](Cc2ccccc2)NC(=O)[C@@H]2CSC(=N2)[C@@H](Cc2ccccc2)NC(=O)[C@@H]2CSC1=N2	16.1 µM (inactive)	> 50 µM (inactive)	10.7 µM (inactive)	25.3	15.1 µM (inactive)	13.7 µM (inactive)	11.6 µM (inactive)	40.3 µM (inactive)	12.2 µM (inactive)	33.6 µM (inactive)	14.6 µM (inactive)	24.4 µM (inactive)	35.5 µM (inactive)	14.9 µM (inactive)	> 50 µM (inactive)		25.7 µM (inactive)	20 µM (inactive)	15.9 µM (inactive)	29.6 µM (inactive)
CC(=O)OCCn1cnc2c(NCC=C(C)C)ncnc21	> 100 µM (inactive)	> 100 µM (inactive)			> 100 µM (inactive)	> 100 µM (inactive)	> 100 µM (inactive)	> 100 µM (inactive)	> 100 µM (inactive)	> 100 µM (inactive)	> 100 µM (inactive)	> 100 µM (inactive)	> 100 µM (inactive)		> 100 µM (inactive)	> 100 µM (inactive)	> 100 µM (inactive)	> 100 µM (inactive)	> 100 µM (inactive)	
CCN(CC)CC[n+]1ccc2c(C)c3[nH]c4ccccc4c3c(C)c2c1		0.422 µM (active)	0.468 µM (active)	22	0.0405 µM (active)	0.635 µM (active)	0.106 µM (active)	0.546 µM (active)	0.406 µM (active)		0.553 µM (active)	0.401 µM (active)		0.163 µM (active)	1.99 µM (inactive)		0.923 µM (active)	0.236 µM (active)	1.55 µM (inactive)	
COC(=O)C1=C(C(=O)OC)C2(/N=C(\Nc3ccccc3)c3ccccc3)N(c3ccc(OC)cc3)CC(c3ccccc3)N2O1 (stereo not given)	> 100 µM (inactive)	> 100 µM (inactive)		> 100	> 100 µM (inactive)	> 100 µM (inactive)	> 100 µM (inactive)	> 100 µM (inactive)	> 100 µM (inactive)	> 100 µM (inactive)	> 100 µM (inactive)	> 100 µM (inactive)	> 100 µM (inactive)	> 100 µM (inactive)	> 100 µM (inactive)	53.6 µM (inactive)	> 100 µM (inactive)	> 100 µM (inactive)	> 100 µM (inactive)	> 100 µM (inactive)
COc1ccc(C2c3cc4c(cc3OC(N3CCOCC3)C2C)OCO4)c(OC)c1OC (stereo not given)	14.6 µM (inactive)	> 10 µM (inactive)	10.8 µM (inactive)	6.93	2.88 µM (inactive)	2.51 µM (inactive)	10.6 µM (inactive)	33.7 µM (inactive)	6.89 µM (inactive)	24.7 µM (inactive)	13.6 µM (inactive)	10.1 µM (inactive)			2.51 µM (inactive)		8.22 µM (inactive)	11 µM (inactive)		13.5 µM (inactive)
C/C(=N\n1c(Cc2ccccc2)n[nH]c1=O)c1ccc([N+](=O)[O-])cc1	> 100 µM (inactive)	> 100 µM (inactive)		> 100	64.4 µM (inactive)	> 100 µM (inactive)	52.8 µM (inactive)	> 100 µM (inactive)	> 100 µM (inactive)	69.7 µM (inactive)	> 100 µM (inactive)	> 100 µM (inactive)		> 100 µM (inactive)	78.5 µM (inactive)	25.6 µM (inactive)	> 100 µM (inactive)	> 100 µM (inactive)	16.6 µM (inactive)	> 100 µM (inactive)
CN(CCN(C)C(=S)NN)C(=S)NN	> 100 µM (inactive)	> 100 µM (inactive)	> 100 µM (inactive)		> 100 µM (inactive)	> 100 µM (inactive)	> 100 µM (inactive)	> 100 µM (inactive)	> 100 µM (inactive)		> 100 µM (inactive)	> 100 µM (inactive)	> 100 µM (inactive)	> 100 µM (inactive)	> 100 µM (inactive)		> 100 µM (inactive)	> 100 µM (inactive)		> 100 µM (inactive)
COc1ccc(-n2nnc(C(N)=O)c2O)cc1	> 100 µM (inactive)	> 100 µM (inactive)	> 100 µM (inactive)	> 100	> 100 µM (inactive)	> 100 µM (inactive)	> 100 µM (inactive)	> 100 µM (inactive)	> 100 µM (inactive)	> 100 µM (inactive)	> 100 µM (inactive)	> 100 µM (inactive)	> 100 µM (inactive)	> 100 µM (inactive)	> 100 µM (inactive)		> 100 µM (inactive)	0.0187 µM (active)	> 100 µM (inactive)	> 100 µM (inactive)
